Results published in patent publication US20060276436A1, “Farnesyl dibenzodiazepinone formulation” (Ecopia BioSciences, Inc., priority 2005, published 2006).
Like-named read-outs stand apart in the source and are kept apart here.

Tests used:
[1] = In vivo toxicity of Compound 1 in monkeys
[2] = test system: human prostate tumor (PC3) xenografts; assay: Human PC3 prostate cancer mice model; assay type: in vivo, HRLN male nude mice; details: Intravenous treatment, 100 mg/kg 5/2/5/2/5
Protocol: The anticancer activity of Compound 1 was tested in a human PC3 prostate model in mice, using formulation D11; at 6, 9 and 10 mg/mL concentrations (see Table 7). HRLN male nude mice (8 weeks of age) were implanted with 1 mm^3 PC3 tumor fragments subcutaneously (sc) in the right flank. Animals were randomized (ten per group) when tumors reach an average size of 80-120 mg and treatment began according to the table below.
Tumor measurements were taken twice weekly using callipers and were converted to tumor mass (in milligrams) using the formula: with^2 (mm)×length (mm)×0.52. Body weights were also recorded twice weekly. Statistical analysis was done using the unpaired two-tailed Student's t test.

[3] = Pharmacokinetic study using Formulation D11 (IV, IP, SC) and Formulation C (PO); assay type: in vivo, Crl: CD1 mice
Protocol: Formulation D11, at a final concentration of 6 mg/ml of Compound 1 was used for IV, IP and SC bolus administration. […] Prior to dosing, animals (female Crl: CD1 mice; 6 weeks of age, 22-24 g) were weighed, randomly selected and assigned to the different treatment groups. Compound 1 was administered by the intravenous (IV), subcutaneous (SC), intraperitoneal (IP), or oral (PO) route to the assigned animals. The dosing volume of Compound 1 was 5 mL per kg body weight. Animals were anesthetized prior to bleeding with 5% isoflurane. Blood was collected into microtainer tubes containing the anticoagulant K2EDTA by cardiac puncture from each of 4 animals per bleeding timepoint (2 min, 5 min, 15 min, 30 min, 1 h, 2 h, 4 h and 8 h). Following collection, the samples were centrifuged and the plasma obtained from each sample was recovered and stored frozen (at approximately −80° C.) pending analysis. […] Samples were analysed by LC/MS/MS. Standard curve ranged from 25 to 2000 ng/mL with limit of quantitation (LOQ)≦25 ng/mL and limit of detection (LOD) of 10 ng/mL.
Plasma values of Compound 1 falling below the limit of quantitation (LOQ) were set to zero. Mean concentration values and standard deviation (SD) were calculated at each timepoints of the pharmacokinetic study (n=4 animals/timepoint). The following pharmacokinetic parameters were calculated: area under the plasma concentration versus time curve from time zero to the last measurable concentration time point (AUC0-t), area under the plasma concentration versus time curve extrapolated to infinity (AUCinf), maximum observed plasma concentration (Cmax), time of maximum plasma concentration (tmax), apparent first-order terminal elimination rate constant (kel), apparent first-order terminal elimination half-life will be calculated as 0.693/kel (t1/2). The systemic clearance (CL) of Compound 1 after intravenous administration was calculated using Dose/AUCinf. Pharmacokinetic parameters were calculated using Kinetica™ 4.1.1 (Innaphase Corporation, Philadelphia, Pa.).

[4] = test system: human glioma (U-87MG) tumor xenograft; assay: Human U-87 MG glioblastoma mice model, antitumor efficacy; assay type: in vivo; details: SC 30 mg/kg q1d×5 over 2 weeks
Protocol: Tumor growth was followed every other day by measuring tumor length (L) and width (W) using a calliper. Measurements were converted to tumor volumes (TV; mm^3) using the standard formula, TV=(L×W^2)/2. Tumor volume at day n was expressed as relative tumor volume (RTV) according to the following formula RTV=TVn/TV0, where TVn is the tumor volume at day n and TV0 is the tumor volume at day 0. The percentage of tumor growth inhibition (% TGI) was determined by 1−(mean RTV of treated group/mean RTV of control group)×100. […] Statistical analysis was calculated by the two-tailed unpaired t test using the Prism software. […]
The human U-87 MG (ATCC® no. HTB-14™) glioblastoma antitumor efficacy study was performed at INSERM U318 (Grenoble, France). […] On each dosing day, Compound 1 stock solutions (24 and 40 mg/mL in bulk Formulation B11) were diluted with sterile 5% dextrose in water (D5W) to prepare a dosing solution of 6 mg/mL of Compound 1 in ready-to-use Formulation D11 (5% ethanol, 5% PEG400, 15% polysorbate 80, and 75% D5W).
For the human glioblastoma antitumor efficacy study, female athymic (nu/nu) nude mice (6-7 weeks of age) were inoculated SC with 5×10^6 U-87MG cells (day 0). […] Tumor growth inhibition (TGI) was calculated on day 34 post tumor cell inoculation, at which time some animals from the vehicle control group had to be sacrificed due to tumor burden.

[5] = Population pharmacokinetic analysis (NONMEM), mouse; assay type: in vivo; details: 30 mg/kg; for half-life: CD1, mouse, plasma, iv; for clearance / Vd: CD1, plasma, Mouse (IV); for Vd: read-out: Vss
Excerpt: Plasma concentrations of Compound 1 were obtained from mice, rats, and monkeys following intravenous injection or continuous infusion. Compound 1 pharmacokinetic parameters in mice, rats, and monkeys were estimated using population pharmacokinetic analysis, a function of the software program NONMEM™ (version 5). Typical population pharmacokinetic parameters for Compound 1 in humans were extrapolated from allometric equations that were derived from pharmacokinetic parameters estimated in the three animal species. […] A two-compartment model with a first-order elimination from the central compartment adequately described Compound 1 plasma concentration-time profiles following intravenous bolus injection (30 mg/kg) in mice and rats, 7-day continuous infusion in rats (50 to 170 mg/kg/day), and 14-day continuous infusion in monkeys (5 to 30 mg/kg/day).

## CC(C)=CCC/C(C)=C/CC/C(C)=C/CN1C(=O)c2cccc(O)c2Nc2c(O)cc(O)cc21 [Compound 1, 10-farnesyl-4,6,8-trihydroxy-dibenzodiazepin-11-one]
[1]; 24-hour CIV, doses of 35 mg/kg and 70 mg/kg, infusion rate 2 mL/kg/hour
  acute toxicity, tolerability: well tolerated
[1]; monkey, in vivo, single bolus intravenous administration
  MTD: ~35 mg/kg
[2]
  antitumor activity (in words): did not result in activity
[3]; IV and IP dosing 30 mg/kg, 30 min
  tissue distribution (in words): well distributed
[3]; SC dosing 30 mg/kg, 30 min, versus IP
  tissue levels (in words): significantly lower
[3]; intraperitoneal and subcutaneous administrations, 30 mg/kg, Formulation D11
  time plasma concentration maintained at therapeutically relevant levels: over 8 hours
[4]
  tolerability of dose regimen: well tolerated
[5]; population PK, read-out: t1/2, α (converted)
  half-life: 0.078 h
[5]; population PK, read-out: t1/2, β (converted)
  half-life: 2.49 h
[5]; WT 0.022 Kg
  clearance: 0.533 mL/min
  Vd: 0.009 L
[5]; population PK
  clearance: 24.8 mL/min/kg
  Vd: 0.401 L/kg
